Patent US12440473B2 (priority 2019, dated 2025)
Where two headings read alike, the source gives them in different places.

What was measured:
full length human PPAR-α = target: T1, full length human PPAR-α (Homo sapiens, UniProt Q07869); test: PathHunter NHR Protein Interaction assay, PPAR-α agonist activity (CHO cells); type: cell-based; conditions: for EC50: Table 5, read-out: Cell-Based PPAR Agonist Activity Half Maximal Effective Concentration (EC50) PPAR-α; for PPAR-α EC50 % improvement over FFA form: compared to free fatty acid form; for PPAR-α agonist maximum activity: text of Example 3; for Emax: CHO, PPAR-alpha, free fatty acid form, normalized to control compound (GW7647), read-out: Maximum Response
T1 construct: host or cells: Chinese hamster ovary (CHO) cell lines
T1 sequence (Q07869 1-468): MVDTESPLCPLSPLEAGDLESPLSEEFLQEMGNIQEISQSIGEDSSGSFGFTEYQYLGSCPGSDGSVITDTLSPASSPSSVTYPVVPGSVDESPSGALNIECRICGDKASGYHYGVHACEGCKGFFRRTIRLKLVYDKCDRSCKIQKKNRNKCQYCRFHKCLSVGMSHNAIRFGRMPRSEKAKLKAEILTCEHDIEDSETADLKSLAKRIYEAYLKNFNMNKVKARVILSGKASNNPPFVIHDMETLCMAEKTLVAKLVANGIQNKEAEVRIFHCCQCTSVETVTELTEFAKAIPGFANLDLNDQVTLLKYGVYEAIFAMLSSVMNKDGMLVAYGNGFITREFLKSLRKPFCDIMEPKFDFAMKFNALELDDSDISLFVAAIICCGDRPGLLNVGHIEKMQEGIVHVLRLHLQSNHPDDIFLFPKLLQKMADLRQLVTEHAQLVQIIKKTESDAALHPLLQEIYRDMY
Experimental: (§1) PPAR-α, PPAR-δ, and PPAR-γ agonist activities were measured using PathHunter Nuclear Hormone Receptor (NHR) Protein Interaction (Pro) assays (DiscoverX, Freemont, California). Briefly, Chinese hamster ovary (CHO) cell lines were used to monitor the activation of PPAR-α, PPAR-δ, and PPAR-γ in a homogenous, non-imaging assay format using Enzyme Fragment Complementation (EFC). The NHR Pro assay was based on detection of protein-protein interactions between activated, full length PPAR-α, PPAR-δ, and PPAR-γ proteins and a nuclear fusion protein containing Steroid Receptor Co-activator Peptide (SRCP) domains with one or more canonical LXXLL interaction motifs. PPAR-α, PPAR-δ, and PPAR-γ were tagged with the ProLink component of the EFC assay system, and the SRCP domain was fused to the enzyme acceptor component (EA) expressed in the nucleus. When bound by ligand, PPAR-α, PPAR-δ, or PPAR-γ migrated to the nucleus and recruited the SRCP domain, whereby complementation occurred, generating a unit of active β-Galactosidase (β-Gal) and production of chemiluminescent signal. […] Percentage activity was calculated using the following formula: % Activity=100%×(mean RLU of test sample−mean RLU of vehicle control)/(mean MAX control ligand−mean RLU of vehicle control).

full length human PPAR-δ = target: T2, full length human PPAR-δ (Homo sapiens, UniProt Q03181); test: PathHunter NHR Protein Interaction assay, PPAR-δ agonist activity (CHO cells); type: cell-based; conditions: for PPAR-δ EC50 % improvement over FFA form: compared to free fatty acid form; for Emax: CHO, free fatty acid form, normalized to control compound (L-165,041), read-out: Maximum Response
T2 construct: host or cells: Chinese hamster ovary (CHO) cell lines
T2 sequence (Q03181 1-441): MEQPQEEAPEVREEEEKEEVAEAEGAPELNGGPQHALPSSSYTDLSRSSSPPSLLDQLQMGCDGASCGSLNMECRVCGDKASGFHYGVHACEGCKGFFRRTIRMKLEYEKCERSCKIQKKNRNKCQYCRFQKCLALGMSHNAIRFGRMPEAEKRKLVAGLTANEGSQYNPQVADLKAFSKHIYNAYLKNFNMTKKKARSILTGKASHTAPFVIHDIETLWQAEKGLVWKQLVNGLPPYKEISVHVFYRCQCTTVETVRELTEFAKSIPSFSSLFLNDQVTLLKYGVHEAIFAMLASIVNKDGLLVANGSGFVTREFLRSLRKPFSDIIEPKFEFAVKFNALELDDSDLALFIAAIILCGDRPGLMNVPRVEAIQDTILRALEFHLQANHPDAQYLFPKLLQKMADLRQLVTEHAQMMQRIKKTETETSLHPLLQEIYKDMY
Experimental: as §1

full length human PPAR-γ = target: T3, full length human PPAR-γ (Homo sapiens, UniProt P37231); test: PathHunter NHR Protein Interaction assay, PPAR-γ agonist activity (CHO cells); type: cell-based; conditions: for Emax: CHO, PPAR-gamma, free fatty acid form, normalized to control compound (Troglitazone), read-out: Maximum Response
T3 construct: host or cells: Chinese hamster ovary (CHO) cell lines
T3 sequence (P37231 1-505): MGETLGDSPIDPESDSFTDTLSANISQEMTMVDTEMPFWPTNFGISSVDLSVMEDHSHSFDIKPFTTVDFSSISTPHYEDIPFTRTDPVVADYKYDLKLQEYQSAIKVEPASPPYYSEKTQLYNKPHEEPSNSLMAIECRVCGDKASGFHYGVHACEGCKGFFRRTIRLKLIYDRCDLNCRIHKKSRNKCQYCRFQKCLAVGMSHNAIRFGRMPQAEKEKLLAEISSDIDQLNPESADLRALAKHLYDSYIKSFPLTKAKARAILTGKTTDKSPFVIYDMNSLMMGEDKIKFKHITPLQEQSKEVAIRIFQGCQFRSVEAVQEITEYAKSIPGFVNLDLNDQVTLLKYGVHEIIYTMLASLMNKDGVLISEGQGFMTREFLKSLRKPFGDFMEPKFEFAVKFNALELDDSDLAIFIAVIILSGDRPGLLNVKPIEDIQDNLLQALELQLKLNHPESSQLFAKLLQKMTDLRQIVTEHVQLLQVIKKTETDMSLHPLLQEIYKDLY
Experimental: as §1

CB1 receptor [1] = target: T4, CB1 receptor (Homo sapiens, UniProt P21554); conditions: for CB1-agonist maximum activity: positive control CP 55940 assigned 100% activity
T4 sequence (P21554 whole entry): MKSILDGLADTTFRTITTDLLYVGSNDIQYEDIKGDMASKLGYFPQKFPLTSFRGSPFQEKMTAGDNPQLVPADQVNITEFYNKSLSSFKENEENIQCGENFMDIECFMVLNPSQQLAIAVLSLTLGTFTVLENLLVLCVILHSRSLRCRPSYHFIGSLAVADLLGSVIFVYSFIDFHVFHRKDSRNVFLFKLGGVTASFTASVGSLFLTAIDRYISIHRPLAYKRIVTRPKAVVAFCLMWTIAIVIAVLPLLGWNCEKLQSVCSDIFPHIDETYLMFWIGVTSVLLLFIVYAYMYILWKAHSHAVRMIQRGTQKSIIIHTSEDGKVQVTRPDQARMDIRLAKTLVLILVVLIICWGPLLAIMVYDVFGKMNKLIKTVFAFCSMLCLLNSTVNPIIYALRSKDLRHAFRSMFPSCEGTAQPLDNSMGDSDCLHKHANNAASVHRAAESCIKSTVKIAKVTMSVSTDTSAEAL
Text: (§2) Briefly, a variety of standardized and optimized functional assays were used to assess and compare the selected compounds' pharmacologic targets, including G protein-coupled receptors (ADORA2A, ADRA1A, ADRA2A, ADRB1, ADRB2, CB1, CB2, CCK1, D1, D2S, ETA, H1, H2, M1 M2, M3, OPRD1, OPRK1, OPRM1, 5HTR1A, 5HTR1B, 5HTR2A, 5HTR2B, AVPR1A), kinases (LCK, INSR, VEGFR2, ROCK1), transporters (DAT, NET, SERT), ion channels (GABAA, 5-HT3, CA1.2, HERG, KVLQT1/MINK, NA1.5, NMDAR1/2B, NACHR), nuclear receptors (AR, GR), and non-kinase enzymes (COX1, COX2, ACHE, MAO-A, PDE3A, PDE4D2). […] Maximum activity (%) was also determined based on comparisons with internal positive controls, which were assigned 100% activity.

OPRM1 = OPRM1 (Homo sapiens, UniProt P35372)
Sequence of OPRM1 (P35372 whole entry): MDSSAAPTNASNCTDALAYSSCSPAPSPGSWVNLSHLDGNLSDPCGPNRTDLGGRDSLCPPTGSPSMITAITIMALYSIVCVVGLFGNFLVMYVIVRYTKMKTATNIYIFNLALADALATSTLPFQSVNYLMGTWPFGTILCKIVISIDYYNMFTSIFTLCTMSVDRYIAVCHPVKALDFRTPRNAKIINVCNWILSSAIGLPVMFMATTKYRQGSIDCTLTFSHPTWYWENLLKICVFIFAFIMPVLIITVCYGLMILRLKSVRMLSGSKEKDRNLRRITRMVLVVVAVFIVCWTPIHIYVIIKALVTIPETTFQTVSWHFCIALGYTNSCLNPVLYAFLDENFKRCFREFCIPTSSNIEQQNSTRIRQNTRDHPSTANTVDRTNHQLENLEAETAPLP
Text: as §2

CB1 receptor [2] = target: T4, CB1 receptor; test: cell-based
Text: as §2

[3] = test system: G protein-coupled receptors, kinases, transporters, ion channels, nuclear receptors, non-kinase enzymes; test: SAFETYscan E/IC50 ELECT panel, agonist and antagonist activities across 78 assays
Text: as §2

cannabinoid receptor 1 = cannabinoid receptor 1 (Homo sapiens, UniProt P21554); test: Cannabinoid receptor 1 agonist activity (Example 4); conditions: for % maximum activity compared to positive control (CP55940): cannabinoid receptor 1 agonist (Table 6)
Sequence of cannabinoid receptor 1 (P21554 whole entry, species assumed): as the sequence (P21554 whole entry) above

diet-induced obese mice = test: Diet-induced obese mice on high fat diet, daily oral gavage for 12 weeks; conditions: for Cholesterol / Glucose: Results (Day 84), 6 h fasted samples
Experimental: Forty C57BL/6J mice were fed a high fat diet (HFD) (D12492, 60% kcals fat) for 8 weeks. Study mice were then divided into the following four groups of ten: vehicle controls, low dose C17:0-treated (5 mg/kg body weight), high-dose C17:0-treated (50 mg/kg body weight), and low-dose C15:0-treated (5 mg/kg body weight).
“Results” values are based on 6 h fasted samples.

CCCCCCCCCCCCCCc1nnn[nH]1 [1-tetrazole-C15:0] was tested, and the EC50 (full length human PPAR-α) was 2600 nM, the “PPAR-α EC50 % improvement over FFA form” value (full length human PPAR-α) was 77% and the “PPAR-α agonist maximum activity” value (full length human PPAR-α) was 32%. For the same compound, the EC50 (full length human PPAR-δ; Table 5, read-out: Cell-Based PPAR Agonist Activity Half Maximal Effective Concentration (EC50) PPAR-δ) was 500 nM, the “PPAR-δ EC50 % improvement over FFA form” value (full length human PPAR-δ) was 81% and the “PPAR-δ agonist maximum activity” value (full length human PPAR-δ; text of Example 3) was 18%. It also gave an EC50 (full length human PPAR-γ; Table 5, read-out: Cell-Based PPAR Agonist Activity Half Maximal Effective Concentration (EC50) PPAR-γ) of over 100000 nM, a CB1-agonist maximum activity (CB1 receptor [1]) of 48.3% and an IC50 (CB1 receptor [1]; read-out: CB1-agonist activity IC50, ten-point concentration curves) of 1300 nM. The “OPRM1 antagonist maximum activity” value (OPRM1) was 46.2% and the IC50 (OPRM1; read-out: OPRM1 antagonist IC50, ten-point concentration curves) was 3900 nM.
CCCCCCCCCCCCCC(CC)C(=O)O (centres unmarked) [2-ethyl-C15:0, 2-ethylpentadecanoic acid] was tested, and the “PPAR-α EC50 % improvement over FFA form” value (full length human PPAR-α) was 90%, the “PPAR-α agonist maximum activity” value (full length human PPAR-α) was 170% and the “PPAR-δ EC50 % improvement over FFA form” value (full length human PPAR-δ) was 89%. The “PPAR-δ agonist maximum activity” value (full length human PPAR-δ; text of Example 3) was 72.4%, the EC50 (full length human PPAR-δ; text of Example 3, read-out: PPAR-δ agonist EC50) was 28 nM and the “PPAR-γ EC50 % improvement over FFA form” value (full length human PPAR-γ; compared to free fatty acid form) was over 49%. The PPAR-γ agonist activity (full length human PPAR-γ; in words) was “acquired PPAR-γ agonist activity”, the CB1-agonist maximum activity (CB1 receptor [1]) was 53.7% and the EC50 (CB1 receptor [2]) was 27 nM.
For CCCCCCCCCCCCCC(C)C(=O)O (centres unmarked) [2-methyl-C15:0, 2-methylpentadecanoic acid], the “additional activity across 78 assays” value [3] was “no additional activity was detected”.
With CCCCCCCCCCCCOCC(=O)O [3-oxa-C15:0, 2-(dodecyloxy)acetic acid] the EC50 (cannabinoid receptor 1) was 570 nM and the “% maximum activity compared to positive control (CP55940)” value (cannabinoid receptor 1) was 83%.
With CCCCCCCCCCCCCC(=O)O [C14:0, myristic acid, reference compound] the Emax (full length human PPAR-α) was 74.1%, the EC50 (full length human PPAR-α) was 8400 nM and the Emax (full length human PPAR-γ) was 19%.
With CCCCCCCCCCCCCCC(=O)O [C15:0, pentadecanoic acid] the Emax (full length human PPAR-α) was 65.8%, the Emax (full length human PPAR-δ; PPAR-delta) was 52.8% and the Emax (full length human PPAR-γ) was 7%. For the same compound, the “metabolic syndrome (glucose, insulin, cholesterol, proinflammatory cytokines) compared to controls” value (diet-induced obese mice; 5 mg/kg, vs vehicle control group) was “attenuated metabolic syndrome”, the Cholesterol (diet-induced obese mice; 5 mg/kg daily oral) was 183 ± 25 mg/dL and the Glucose (diet-induced obese mice; 5 mg/kg daily oral) was 245 ± 37 mg/dL. For the same compound, the “additional activity across 78 assays” value [3] was “no additional activity was detected”.
Work on CCCCCCCCCCCCCCCC(=O)O [C16:0, palmitic acid, reference compound] yielded an Emax (full length human PPAR-α) of 56.1% and an Emax (full length human PPAR-γ) of 4.7%.
Compound CCCCCCCCCCCCCCCCC(=O)O [C17:0, heptadecanoic acid] has an Emax (full length human PPAR-α) of 16.7%, an Emax (full length human PPAR-δ; PPAR-delta) of 39.8% and an EC50 (full length human PPAR-δ; PPAR-delta, free fatty acid form (Table 4), read-out: EC50) of 17400 nM. For the same compound, the Emax (full length human PPAR-γ) was 1%, the “metabolic syndrome compared to controls” value (diet-induced obese mice; C17:0 5 and 50 mg/kg, vs vehicle control group) was “trended toward attenuated metabolic syndrome” and the Cholesterol (diet-induced obese mice; 5 mg/kg daily oral) was 197 ± 31 mg/dL. It also gave a Glucose (diet-induced obese mice; 5 mg/kg daily oral) of 296 ± 23 mg/dL, a Cholesterol (diet-induced obese mice; 50 mg/kg daily oral) of 187 ± 44 mg/dL and a Glucose (diet-induced obese mice; 50 mg/kg daily oral) of 282 ± 31 mg/dL. The “proinflammatory cytokines and chemokines (TNF-α and MCP-1) compared to controls” value (diet-induced obese mice; high-dose 50 mg/kg, vs vehicle control group) was “significantly lower”.
With CCCCCCCCCCCCCC(CC)(CC)C(=O)O [diethyl-C15:0] the EC50 (cannabinoid receptor 1) was 3300 nM and the “% maximum activity compared to positive control (CP55940)” value (cannabinoid receptor 1) was 93%.
